# Experiments:
# Format in all cases: cell-based
# Parameters in all cases: host or cells: HEK293 (HEK293T cultured)
# RET [1] = molecular target: T1, RET (Homo sapiens, UniProt P07949); test: NanoBRET target engagement intracellular kinase assay
# Experimental: (§1) NanoBRET Target Engagement intracellular kinase assay. HEK293T cells were cultured in […]
# (§2) The cell line underwent authentication by short tandem repeat (STR) profiling at Cytogenetics and Cell Authentication Core (CCAC) at MD Anderson Cancer Center. NanoBRET Target Engagement intracellular kinase assay, K-10 assay (Cat. # N2641), K-9 assay (Cat. # N2631), transfection reagent FuGENE HD (Cat. # E2311), transfection carrier DNA (Cat. # E4881), NanoLuc-STK33 fusion vector (Cat. # NV2111), NanoLuc-RET fusion vector (Cat. # NV1951), NanoLuc-CLK1 fusion vector (Cat. # NV1131), NanoLuc-CLK2 fusion vector (Cat. # NV1141), and NanoLuc-CLK4 fusion vector (Cat. # NV1151) were purchased from Promega. The measurement of test compound engagement with cellular target protein was performed in a 384-well format according to manufacturer’s instructions. HEK293 cells were transiently transfected with NanoLuc (STK33, RET, CLK1, CLK2, and CLK4) fusion vectors. After 36 hours of transfection, cells were treated with a fixed concentration of tracer (recommended by Promega) followed by compounds (inhibitors) for 2 hours of incubation. To determine the test compound […]
# (§3) 0.4 nM at a fixed tracer concentration. Staurosporine was measured in parallel as a positive control.
# (§4) Freshly prepared NanoBRET Nano-Glo substrate plus extracellular NanoLuc inhibitor was then added to initiate the subsequent bioluminescence resonance energy transfer (BRET) measurements using a CLARIOstar Plus BMG LABTECH plate reader. Data analysis was done by measuring the ratio of acceptor emission to donor emission (BRET ratio) and normalized by subtracting no-tracer-control-background. IC50 values were obtained by nonlinear regression using a four-parameter equation in GraphPad Prism 7 (San Diego, CA).
# CLK4 [2] = molecular target: T2, CLK4 (Homo sapiens, UniProt Q9HAZ1); test: as above
# Experimental: as §1, §2, §3, §4
# CLK2 [3] = molecular target: T3, CLK2 (Homo sapiens, UniProt P49760); test: as above
# Experimental: as §1, §2, §3, §4
# CLK1 [4] = molecular target: T4, CLK1 (Homo sapiens, UniProt P49759); test: as above
# Experimental: as §1, §2, §3, §4
# RET [5] = molecular target: T1, RET; test: NanoBRET K192 assay (Promega); settings: HEK293 cells
# Experimental: (§5) NanoBRET Target Engagement K192 assay. HEK293 cells (ATCC) were cultured in DMEM (Gibco) + 10% FBS (Seradigm) and incubated in a humidified 37°C/5% CO2 incubator. The NanoBRET Target Engagement K192 Kinase Selectivity System (Promega) contains 192 unique transfection-ready NanoLuc/Kinase fusions, pre-diluted in either transfection carrier DNA or relevant cyclin DNA. These NanoLuc/Kinase fusion constructs were transfected into HEK293 cells using Fugene HD (Promega) according to the manufacturer’s protocol. Briefly, 10 µL of a 20 µg/mL DNA solution was added to white, TC-treated 96-well assay plates (Corning), followed by 30 µL of a diluted Fugene HD solution (20 µL Fugene/1 mL Opti-MEM). After transfection complex formation, HEK293 cells were resuspended at 3.3 × 105 c/mL in Opti-MEM + 1% FBS and added at a volume of 60 µL per well, to result in approximately 20000 cells/well. Cells were incubated in a humidified 37°C/5% CO2 incubator for 20 hours. Tracer K-10 (Promega) was prepared at a 100× concentration in DMSO (Sigma) and diluted to a working concentration of 10× in tracer dilution buffer (12.5 mM HEPES, 31.25% PEG400, pH 7.5) (Promega). Test compounds were prepared as concentrated stock solutions in DMSO and diluted in Opti-MEM to prepare 10× working stocks. Cells were equilibrated with test compounds and Tracer K-10 for 2 hours prior to BRET measurements. For target engagement analysis, Tracer K-10 was added to cells at one of 4 […]
# (§6) manufacturer’s protocol. To measure BRET, NanoBRET NanoGlo Substrate and Extracellular NanoLuc Inhibitor (Promega) were added according to the manufacturer’s protocol, and filtered luminescence was measured on a GloMax Discover luminometer equipped with 450 nm BP filter (donor) and 600 nm LP filter (acceptor), using 0.5 s integration time. Milli-BRET units are calculated by multiplying the raw BRET units by 1000.
# (§7) For Fractional Occupancy determination, the following equation was used:
# (§8) % Occupancy = [1-(X-Z)/(Y-Z)]×100
# (§9) Where X = BRET in the presence of the test compound and Tracer K10, Y = BRET in the presence of Tracer K10 only, and Z = Full occupancy, or BRET in the absence of the test compound and […]
# (§10) Tracer K10. […]
# CLK4 [6] = molecular target: T2, CLK4; test: NanoBRET K192 assay (Promega); settings: HEK293 cells
# Experimental: as §5, §6, §7, §8, §9, §10
# STK33 = STK33 (Homo sapiens, UniProt Q9BYT3); test: NanoBRET K192 assay (Promega); settings: HEK293 cells
# Experimental: as §5, §6, §7, §8, §9, §10
# CLK2 [7] = molecular target: T3, CLK2; test: NanoBRET K192 assay (Promega); settings: HEK293 cells
# Experimental: as §5, §6, §7, §8, §9, §10
# CLK1 [8] = molecular target: T4, CLK1; test: NanoBRET K192 assay (Promega); settings: HEK293 cells
# Experimental: as §5, §6, §7, §8, §9, §10
# [9] = HEK293 cells, 2 hours incubation
# T3 sequence (P49760 whole entry): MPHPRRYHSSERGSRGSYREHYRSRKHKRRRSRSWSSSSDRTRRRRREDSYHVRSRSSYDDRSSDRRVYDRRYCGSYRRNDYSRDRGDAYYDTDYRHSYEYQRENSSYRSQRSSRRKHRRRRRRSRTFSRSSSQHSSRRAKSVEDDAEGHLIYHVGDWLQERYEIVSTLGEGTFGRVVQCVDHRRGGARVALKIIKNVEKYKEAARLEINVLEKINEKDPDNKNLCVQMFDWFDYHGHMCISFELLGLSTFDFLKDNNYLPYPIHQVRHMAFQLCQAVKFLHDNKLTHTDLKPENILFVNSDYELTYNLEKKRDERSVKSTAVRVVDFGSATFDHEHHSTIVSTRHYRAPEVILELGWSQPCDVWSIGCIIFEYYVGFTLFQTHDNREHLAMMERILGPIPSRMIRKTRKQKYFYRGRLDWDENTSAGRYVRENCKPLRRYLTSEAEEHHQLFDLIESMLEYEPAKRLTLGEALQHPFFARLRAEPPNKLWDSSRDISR
# T2 sequence (Q9HAZ1 whole entry): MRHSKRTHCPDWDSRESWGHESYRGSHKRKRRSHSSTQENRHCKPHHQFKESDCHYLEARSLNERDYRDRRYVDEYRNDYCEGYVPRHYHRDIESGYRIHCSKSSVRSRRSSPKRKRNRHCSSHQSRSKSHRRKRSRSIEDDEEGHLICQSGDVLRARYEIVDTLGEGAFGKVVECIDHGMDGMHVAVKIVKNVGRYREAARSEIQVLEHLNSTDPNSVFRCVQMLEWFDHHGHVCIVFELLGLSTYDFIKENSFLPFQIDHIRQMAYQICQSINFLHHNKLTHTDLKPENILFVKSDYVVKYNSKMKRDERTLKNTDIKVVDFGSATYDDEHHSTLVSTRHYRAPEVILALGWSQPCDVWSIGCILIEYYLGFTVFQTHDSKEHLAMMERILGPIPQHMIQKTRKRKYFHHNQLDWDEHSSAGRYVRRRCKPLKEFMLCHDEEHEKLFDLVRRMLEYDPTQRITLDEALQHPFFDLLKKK
# T4 sequence (P49759 whole entry): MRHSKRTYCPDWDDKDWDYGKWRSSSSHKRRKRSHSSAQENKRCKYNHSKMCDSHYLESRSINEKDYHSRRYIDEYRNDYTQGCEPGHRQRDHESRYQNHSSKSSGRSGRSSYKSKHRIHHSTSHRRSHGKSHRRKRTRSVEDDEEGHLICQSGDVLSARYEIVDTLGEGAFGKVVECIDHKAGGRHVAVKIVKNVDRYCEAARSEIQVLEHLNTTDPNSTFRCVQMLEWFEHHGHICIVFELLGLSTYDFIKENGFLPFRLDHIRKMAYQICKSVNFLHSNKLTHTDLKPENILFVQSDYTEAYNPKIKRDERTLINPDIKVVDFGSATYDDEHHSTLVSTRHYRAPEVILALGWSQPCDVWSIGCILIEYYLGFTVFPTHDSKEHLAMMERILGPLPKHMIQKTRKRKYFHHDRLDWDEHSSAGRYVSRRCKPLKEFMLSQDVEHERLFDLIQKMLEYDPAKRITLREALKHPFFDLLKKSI
# T1 sequence (P07949 29-1114): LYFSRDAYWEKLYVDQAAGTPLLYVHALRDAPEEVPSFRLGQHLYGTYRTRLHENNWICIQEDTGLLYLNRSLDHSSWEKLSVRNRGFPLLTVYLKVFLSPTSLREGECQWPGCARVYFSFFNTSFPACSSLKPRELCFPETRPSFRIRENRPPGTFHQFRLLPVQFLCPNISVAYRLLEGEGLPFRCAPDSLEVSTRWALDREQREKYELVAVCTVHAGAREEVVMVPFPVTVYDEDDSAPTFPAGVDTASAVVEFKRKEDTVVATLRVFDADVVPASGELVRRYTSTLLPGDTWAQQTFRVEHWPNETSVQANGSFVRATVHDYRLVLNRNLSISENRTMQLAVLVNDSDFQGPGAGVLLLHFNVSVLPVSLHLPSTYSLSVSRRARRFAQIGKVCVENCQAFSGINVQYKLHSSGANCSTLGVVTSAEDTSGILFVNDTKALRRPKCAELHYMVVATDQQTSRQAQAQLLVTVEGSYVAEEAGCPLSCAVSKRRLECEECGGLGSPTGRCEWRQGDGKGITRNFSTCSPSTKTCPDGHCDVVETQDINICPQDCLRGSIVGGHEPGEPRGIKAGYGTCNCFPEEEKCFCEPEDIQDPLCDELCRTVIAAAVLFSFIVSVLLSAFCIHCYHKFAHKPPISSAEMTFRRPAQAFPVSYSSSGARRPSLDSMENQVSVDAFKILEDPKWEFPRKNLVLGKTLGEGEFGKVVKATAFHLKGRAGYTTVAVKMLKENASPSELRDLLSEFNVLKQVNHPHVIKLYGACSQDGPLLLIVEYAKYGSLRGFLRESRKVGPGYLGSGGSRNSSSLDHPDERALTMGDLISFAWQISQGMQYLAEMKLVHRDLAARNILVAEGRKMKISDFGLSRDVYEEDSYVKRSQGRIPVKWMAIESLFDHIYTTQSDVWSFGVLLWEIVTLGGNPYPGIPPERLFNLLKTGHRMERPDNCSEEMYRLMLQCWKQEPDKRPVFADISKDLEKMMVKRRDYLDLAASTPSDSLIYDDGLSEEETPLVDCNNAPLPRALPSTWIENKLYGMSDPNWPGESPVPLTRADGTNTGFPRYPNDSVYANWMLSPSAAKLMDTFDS
# Chain of STK33 (Q9BYT3 whole entry): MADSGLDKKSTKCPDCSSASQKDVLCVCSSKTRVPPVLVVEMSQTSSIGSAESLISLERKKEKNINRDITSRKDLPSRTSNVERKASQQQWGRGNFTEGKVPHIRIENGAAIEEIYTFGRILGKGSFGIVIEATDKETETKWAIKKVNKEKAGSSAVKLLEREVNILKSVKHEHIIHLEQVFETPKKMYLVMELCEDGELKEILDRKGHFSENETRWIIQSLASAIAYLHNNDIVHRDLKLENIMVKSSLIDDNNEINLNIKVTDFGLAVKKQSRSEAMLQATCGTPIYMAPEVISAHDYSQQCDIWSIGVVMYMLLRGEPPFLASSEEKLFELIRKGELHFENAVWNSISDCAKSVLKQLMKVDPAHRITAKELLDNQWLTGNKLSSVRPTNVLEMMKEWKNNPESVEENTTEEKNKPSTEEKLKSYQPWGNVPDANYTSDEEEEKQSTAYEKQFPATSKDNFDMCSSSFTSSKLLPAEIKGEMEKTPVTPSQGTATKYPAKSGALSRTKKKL
structure (smiles),measurement,setting,value
O=C(c1ccc2[nH]nc(C#Cc3ccccc3-c3ccccc3)c2c1)N1CC2(CCCNC2)C1 [CDD-2807],IC50,RET [1]; [9],363 nM
same,Fold NanoBRET IC50 RET over STK33 (in parentheses),RET [1]; selectivity vs STK33,39 X
same,IC50,CLK4 [2]; [9],85 nM
same,Fold NanoBRET IC50 CLK4 over STK33 (in parentheses),CLK4 [2]; selectivity vs STK33,9 X
same,IC50,CLK2 [3]; [9],101 nM
same,Fold NanoBRET IC50 CLK2 over STK33 (in parentheses),CLK2 [3]; selectivity vs STK33,11 X
same,IC50,CLK1 [4]; [9],116 nM
same,Fold NanoBRET IC50 CLK1 over STK33 (in parentheses),CLK1 [4]; selectivity vs STK33,13 X
same,receptor occupancy at 1 µM,"RET [5]; HEK293, at 1 µM",85.8 ± 0.2%
same,NanoBRET K192 assay % Occupancy RET,RET [5]; at 1 µM,> 80%
same,receptor occupancy at 1 µM,"CLK4 [6]; HEK293, at 1 µM",94.7 ± 0.1%
same,NanoBRET K192 assay % Occupancy CLK4,CLK4 [6]; at 1 µM,> 80%
same,receptor occupancy at 1 µM,STK33,95.9%
same,receptor occupancy at 1 µM,"CLK2 [7]; HEK293, at 1 µM",89.7%
same,NanoBRET K192 assay % Occupancy CLK2,CLK2 [7]; at 1 µM,> 80%
same,receptor occupancy at 1 µM,"CLK1 [8]; HEK293, at 1 µM",83.5 ± 0.1%
same,NanoBRET K192 assay % Occupancy CLK1,CLK1 [8]; at 1 µM,> 80%
